The target of assay [1] is T1, BRD4 BD1 (Homo sapiens, UniProt O60885).
T1 construct: HEK293 cells were transfected using NanoLuc-BRD4-BD1 or NanoLuc-BRD4-BD2 fusion vectors
In words: NanoBRET bromodomain assay, NanoLuc-BRD4-BD1 in HEK293 cells. It is filed as binding. On the procedure: Exemplary compounds of the disclosure are active against BRD4 BD2 and selective over BRD4 BD1. BRD4 is a representative example of the BET family, as the binding sites of all BET family members are structurally similar. […] IC50s and fold selectivity's are determined as described below and are represented in Table 1.
(§1) Plates were then incubated at 37° C.+5% CO2 incubator for 2 hours.
(§2) Fold Selectivity Calculated (IC50 BD1/IC50 BD2).
On the technique in general: BRET reads energy transfer from a luciferase to a nearby fluorophore.

Assay [2] concerns the target T2, BRD4 BD2 (Homo sapiens, UniProt O60885).
T2 construct: HEK293 cells were transfected using NanoLuc-BRD4-BD1 or NanoLuc-BRD4-BD2 fusion vectors
Put plainly: NanoBRET bromodomain assay, NanoLuc-BRD4-BD2 in HEK293 cells. The note with it: for Fold Selectivity BRD4 BD1/BD2: IC50 BD1/IC50 BD2, qualitative if an IC50 is at the upper limit. The format is binding. As for the experimental part:
as §1, §2

What is called IC50 is the midpoint of a concentration-inhibition curve. On to `Cc1cc(-c2cc3c(-c4cc(=O)n(C)cc4-c4ccccc4Cl)cn(C)c(=O)c3[nH]2)cc(C)n1.Cl` [Example 32, 4-(5-(2-chlorophenyl)-1-methyl-2-oxo-1,2-dihydropyridin-4-yl)-2-(2,6-dimethylpyridin-4-yl)-6-methyl-1,6-dihydro-7H-pyrrolo[2,3-c]pyridin-7-one hydrogen chloride], for which the IC50 in assay [1] was over 1000 nM. Also, in assay [2], the IC50 was 10 to 50 nM; the “Fold Selectivity BRD4 BD1/BD2” value was “xxx (Fold >200 and ≤1000)”.

As to `Cn1cc(-c2ccccc2)c(-c2cn(C)c(=O)c3[nH]c(-c4ccc(F)cc4F)cc23)cc1=O` [Example 43, 2-(2,4-difluorophenyl)-6-methyl-4-(1-methyl-2-oxo-5-phenyl-1,2-dihydropyridin-4-yl)-1,6-dihydro-7H-pyrrolo[2,3-c]pyridin-7-one], the IC50 in assay [1] is over 1000 nM; in assay [2], under 10 nM. Besides, the “Fold Selectivity BRD4 BD1/BD2” value in assay [2] is reported as “xxxx (Fold >1000)”.

Turning to `Cn1cc(-c2ccccc2)c(-c2cn(C)c(=O)c3[nH]c(-c4ccc(S(C)(=O)=O)cc4)cc23)cc1=O` [Example 45, 6-methyl-4-(1-methyl-2-oxo-5-phenyl-1,2-dihydropyridin-4-yl)-2-(4-(methylsulfonyl)phenyl)-1,6-dihydro-7H-pyrrolo[2,3-c]pyridin-7-one], the IC50 was over 1000 nM in assay [1] and under 10 nM in assay [2]. In addition, in assay [2], the “Fold Selectivity BRD4 BD1/BD2” value was “xxxx (Fold >1000)”.

In assay [1], `COCCn1cc(-c2ccccc2)c(-c2cn(C)c(=O)c3[nH]c(-c4cnn(C(F)(F)F)c4)cc23)cc1=O` [Example 52, 4-(1-(2-methoxyethyl)-2-oxo-5-phenyl-1,2-dihydropyridin-4-yl)-6-methyl-2-(1-(trifluoromethyl)-1H-pyrazol-4-yl)-1,6-dihydro-7H-pyrrolo[2,3-c]pyridin-7-one] came in with an IC50 of over 1000 nM. Moreover, in assay [2], the IC50 was under 10 nM and the “Fold Selectivity BRD4 BD1/BD2” value is “xxxx (Fold >1000)”.

For `Cn1cc(-c2cc(=O)n(CCOC(F)F)cc2-c2ccccc2)c2cc(-c3cnn(C(F)(F)F)c3)[nH]c2c1=O` [Example 22, 4-(1-(2-(difluoromethoxy)ethyl)-2-oxo-5-phenyl-1,2-dihydropyridin-4-yl)-6-methyl-2-(1-(trifluoromethyl)-1H-pyrazol-4-yl)-1,6-dihydro-7H-pyrrolo[2,3-c]pyridin-7-one], the IC50 in assay [1] was over 1000 nM. Moreover, in assay [2], the IC50 was under 10 nM and the “Fold Selectivity BRD4 BD1/BD2” value was “xxxx (Fold >1000)”.

For the molecule `Cn1cc(-c2c(-c3ccccc3)cn(CCO)c(=O)c2C(F)(F)F)c2cc(-c3cnn(C(F)(F)F)c3)[nH]c2c1=O` [Example 68, 4-(1-(2-hydroxyethyl)-2-oxo-5-phenyl-3-(trifluoromethyl)-1,2-dihydropyridin-4-yl)-6-methyl-2-(1-(trifluoromethyl)-1H-pyrazol-4-yl)-1,6-dihydro-7H-pyrrolo[2,3-c]pyridin-7-one], the values for the IC50 in assay [1] and in assay [2] were over 1000 nM and 200 to 1000 nM, respectively. Besides, the “Fold Selectivity BRD4 BD1/BD2” value in assay [2] was “x (Fold >2 and ≤50)”.

Molecule `Cn1cc(-c2cccc(CS(C)(=O)=O)c2)c(-c2cn(C)c(=O)c3[nH]c(-c4ccc(F)cc4F)cc23)cc1=O` [Example 77] registered an IC50 in assay [1] of over 1000 nM. In assay [2], the IC50 is 50 to 200 nM; the “Fold Selectivity BRD4 BD1/BD2” value is “xx (Fold >50 and ≤200)”.

With `CC(C)n1cc(-c2[nH]c3c(=O)n(C)cc(-c4cc(=O)n(C)cc4-c4ccccc4)c3c2F)cn1` [Example 65, 4-[3-fluoro-2-(1-isopropylpyrazol-4-yl)-6-methyl-7-oxo-1H-pyrrolo[2,3-c]pyridin-4-yl]-1-methyl-5-phenylpyridin-2-one], the IC50 in assay [1] was over 1000 nM. In addition, in assay [2], the IC50 is 10 to 50 nM; the “Fold Selectivity BRD4 BD1/BD2” value is “xxx (Fold >200 and ≤1000)”.

As for `Cn1cc(-c2ccccc2)c(-c2cn(C)c(=O)c3[nH]c(-c4c(F)cccc4F)cc23)cc1=O` [Example 82], in assay [1], the IC50 was over 1000 nM. In assay [2], the IC50 is 50 to 200 nM; the “Fold Selectivity BRD4 BD1/BD2” value is “xx (Fold >50 and ≤200)”.

Take `CN(C)CCOc1cccc(-c2cn(C)c(=O)cc2-c2cn(C)c(=O)c3[nH]c(-c4cnn(C(F)(F)F)c4)cc23)c1` [Example 3, 4-(5-(3-(2-(dimethylamino)ethoxy)phenyl)-1-methyl-2-oxo-1,2-dihydropyridin-4-yl)-6-methyl-2-(1-(trifluoromethyl)-1H-pyrazol-4-yl)-1,6-dihydro-7H-pyrrolo[2,3-c]pyridin-7-one]: in assay [1], the IC50 is over 1000 nM. For the same molecule, in assay [2], the IC50 was in the range of 50 to 200 nM; the “Fold Selectivity BRD4 BD1/BD2” value is “xx (Fold >50 and ≤200)”.

For `Cn1cc(-c2ccccc2)c(-c2cn(C)c(=O)c3[nH]c(-c4cccn(C)c4=O)cc23)cc1=O` [Example 1, 6-methyl-2-(1-methyl-2-oxo-1,2-dihydropyridin-3-yl)-4-(1-methyl-2-oxo-5-phenyl-1,2-dihydropyridin-4-yl)-1,6-dihydro-7H-pyrrolo[2,3-c]pyridin-7-one], the figures for the IC50 in assay [1] and in assay [2] were over 1000 nM and 10 to 50 nM, respectively. Also, the “Fold Selectivity BRD4 BD1/BD2” value in assay [2] was “xxx (Fold >200 and ≤1000)”.

As for `Cc1cccc(C)c1Oc1cn(C2CC2)c(=O)cc1-c1cn(C)c(=O)c2[nH]c(-c3ccc(F)cc3F)cc12` [Example 39, 4-(1-cyclopropyl-5-(2,6-dimethylphenoxy)-2-oxo-1,2-dihydropyridin-4-yl)-2-(2,4-difluorophenyl)-6-methyl-1,6-dihydro-7H-pyrrolo[2,3-c]pyridin-7-one], the IC50 in assay [1] is over 1000 nM. For the same molecule, in assay [2], the IC50 is under 10 nM and the “Fold Selectivity BRD4 BD1/BD2” value is on record as “xxxx (Fold >1000)”.

For `Cn1cc(-c2ccccc2)c(-c2cn(C)c(=O)c3[nH]c(-c4cccc(C5COC5)c4)cc23)cc1=O` [Example 84], the results for the IC50 in assay [1] and in assay [2] were 50 to 500 nM and under 10 nM, respectively. The “Fold Selectivity BRD4 BD1/BD2” value in assay [2] was “xx (Fold >50 and ≤200)”.

On to `Cn1cc(-c2ccccc2)c(-c2cn(C)c(=O)c3[nH]c(-c4ccc(F)c(C(C)(C)O)c4)cc23)cc1=O` [Example 69], for which the IC50 is 500 to 1000 nM in assay [1] and under 10 nM in assay [2]. Moreover, the “Fold Selectivity BRD4 BD1/BD2” value in assay [2] is “xxx (Fold >200 and ≤1000)”.

With `Cc1cccc(C)c1Oc1cn(C)c(=O)cc1-c1cn(C)c(=O)c2[nH]c(-c3cn(CC(F)(F)F)nc3C)cc12` [Example 15, 4-(5-(2,6-dimethylphenoxy)-1-methyl-2-oxo-1,2-dihydropyridin-4-yl)-6-methyl-2-(3-methyl-1-(2,2,2-trifluoroethyl)-1H-pyrazol-4-yl)-1,6-dihydro-7H-pyrrolo[2,3-c]pyridin-7-one], the IC50 in assay [1] is 500 to 1000 nM. In assay [2], the IC50 fell in the range of 10 to 50 nM; the “Fold Selectivity BRD4 BD1/BD2” value is “xx (Fold >50 and ≤200)”.

`Cn1cc(-c2ccccc2)c(-c2cn(C)c(=O)c3[nH]c(-c4ccc(C5COC5)cc4)cc23)cc1=O` [Example 44, 6-methyl-4-(1-methyl-2-oxo-5-phenyl-1,2-dihydropyridin-4-yl)-2-(4-(oxetan-3-yl)phenyl)-1,6-dihydro-7H-pyrrolo[2,3-c]pyridin-7-one] returned an IC50 in assay [1] of over 1000 nM. In addition, in assay [2], the IC50 was under 10 nM and the “Fold Selectivity BRD4 BD1/BD2” value was “xxxx (Fold >1000)”.

In assay [1], `Cn1cc(-c2cccc(OCCO)c2)c(-c2cn(C)c(=O)c3[nH]c(-c4ccc(F)cc4F)cc23)cc1=O` [Example 76] gave an IC50 of over 1000 nM. Moreover, in assay [2], the IC50 fell in the range of 10 to 50 nM; the “Fold Selectivity BRD4 BD1/BD2” value is “xxx (Fold >200 and ≤1000)”.

Regarding `COc1cccc(-c2cc3c(-c4cc(=O)n(C5CC5)cc4-c4ccccc4)cn(C)c(=O)c3[nH]2)c1F` [Example 50, 4-(1-cyclopropyl-2-oxo-5-phenyl-1,2-dihydropyridin-4-yl)-2-(2-fluoro-3-methoxyphenyl)-6-methyl-1,6-dihydro-7H-pyrrolo[2,3-c]pyridin-7-one], the IC50 in assay [1] is over 1000 nM. For the same molecule, in assay [2], the IC50 is under 10 nM and the “Fold Selectivity BRD4 BD1/BD2” value is “xxxx (Fold >1000)”.

Take `Cn1cc(-c2ccccc2)c(-c2cn(C)c(=O)c3[nH]c(-c4cnn(C(F)(F)F)c4)c(Cl)c23)cc1=O` [Example 10, 3-chloro-6-methyl-4-(1-methyl-2-oxo-5-phenyl-1,2-dihydropyridin-4-yl)-2-(1-(trifluoromethyl)-1H-pyrazol-4-yl)-1,6-dihydro-7H-pyrrolo[2,3-c]pyridin-7-one]: the IC50 in assay [1] was over 1000 nM. In assay [2], the IC50 fell in the range of 10 to 50 nM; the “Fold Selectivity BRD4 BD1/BD2” value was “xxx (Fold >200 and ≤1000)”.

For `Cn1cc(-c2cc(=O)n(CCOC(F)(F)F)cc2-c2ccccc2)c2cc(-c3cnn(C(F)(F)F)c3)[nH]c2c1=O` [Example 59, 6-methyl-4-(2-oxo-5-phenyl-1-(2-(trifluoromethoxy)ethyl)-1,2-dihydropyridin-4-yl)-2-(1-(trifluoromethyl)-1H-pyrazol-4-yl)-1,6-dihydro-7H-pyrrolo[2,3-c]pyridin-7-one], in assay [1], the IC50 was over 1000 nM. Besides, in assay [2], the IC50 was 50 to 200 nM; the “Fold Selectivity BRD4 BD1/BD2” value is “xx (Fold >50 and ≤200)”.

In assay [1], `CSCc1ccc(-c2cn(C)c(=O)cc2-c2cn(C)c(=O)c3[nH]c(-c4cnn(C(F)(F)F)c4)cc23)cc1` [Example 24, 6-methyl-4-(1-methyl-5-(4-((methylthio)methyl)phenyl)-2-oxo-1,2-dihydropyridin-4-yl)-2-(1-(trifluoromethyl)-1H-pyrazol-4-yl)-1,6-dihydro-7H-pyrrolo[2,3-c]pyridin-7-one] showed an IC50 of over 1000 nM. Further, in assay [2], the IC50 was under 10 nM and the “Fold Selectivity BRD4 BD1/BD2” value is reported as “xxxx (Fold >1000)”.
